Data taken from patent US10842152B2, “Isothiazolo-based bicycles, processes for their preparation and their use as herbicides and/or plant growth regulators” (Bayer CropScience Aktiengesellschaft, priority 2017, dated 2020).

Columns and labels:
[1] = tested on: Amaranthus retroflexus; assay: Herbicidal effect pre-emergence; type: in vivo; details: 320 g/ha, visual grading after ca. 3 weeks vs untreated controls
From the text: (§1) Herbicidal activities of the compounds of the formulae (G1) or (G2) according to the invention were investigated against the following harmful plants: • ALOMY=Alopecurus myosuroides • ECHCG=Echinochloa crus-galli • SETVI=Setaria viridis • ABUTH=Abutilon theophrasti • AMARE=Amaranthus retroflexus • PHBPU=Pharbitis purpurea • POLCO=Polygonum convolvulus (=Fallopia convolvulus) • STEME=Stellaria media • VIOTR=Viola tricolor
(§2) Seeds of mono- and dicotyledonous weed plants and crop plants are sown in wood-fiber pots in sandy loam and covered with soil. The compounds according to the invention, formulated in the form of wettable powders (WP) or as emulsifiable concentrates (EC), are then applied to the surface of the covering soil as aqueous suspension or emulsion, with the addition of 0.5% of an additive, at an application rate of 600 l of water/ha (converted).
(§3) Following treatment, the pots are placed in a greenhouse and kept under optimum growth conditions for the test plants. The visual grading of the damage to the test plants is carried out after ca. 3 weeks in comparison to untreated controls (herbicidal effect in percent (%): 100% effect=plants have died off, 0% effect=as control plants).

[2] = tested on: Setaria viridis; assay: Herbicidal effect pre-emergence; type: in vivo; details: 320 g/ha, visual grading after ca. 3 weeks vs untreated controls
From the text: as §1, §2, §3

[3] = tested on: Viola tricolor; assay: Herbicidal effect pre-emergence; type: in vivo; details: 320 g/ha, visual grading after ca. 3 weeks vs untreated controls
From the text: as §1, §2, §3

[4] = tested on: Amaranthus retroflexus; assay: Herbicidal effect post-emergence; type: in vivo; details: 320 g/ha, visual grading after ca. 3 weeks (Table 9)
From the text: as §1
(§4) Seeds of mono- and dicotyledonous weed plants and crop plants are sown in wood-fiber pots in sandy loam, covered with soil and grown in a greenhouse under controlled growth conditions. 2 to 3 weeks after sowing, the test plants are sprayed in the single-leaf stage. The compounds according to the invention, formulated in form of wettable powders (WP) or as emulsifiable concentrates (EC), are then sprayed onto the green plant parts as aqueous suspension or emulsion, with the addition of 0.5% of an additive, at an application rate of 600 l of water/ha (converted). After the test plants had been in the greenhouse for ca. 3 weeks under optimum growth conditions, the effect of the preparations is assessed visually in comparison with untreated controls (herbicidal effect in percent (%): 100% effect=plants have died off, 0% effect=as control plants).

[5] = tested on: Setaria viridis; assay: Herbicidal effect post-emergence; type: in vivo; details: 320 g/ha, visual grading after ca. 3 weeks (Table 9)
From the text: as §1, §4

[6] = tested on: Viola tricolor; assay: Herbicidal effect post-emergence; type: in vivo; details: 320 g/ha, visual grading after ca. 3 weeks (Table 9)
From the text: as §1, §4

[7] = tested on: Alopecurus myosuroides; assay: Herbicidal effect pre-emergence; type: in vivo; details: 320 g/ha, visual grading after ca. 3 weeks vs untreated controls
From the text: as §1, §2, §3

[8] = tested on: Stellaria media; assay: Herbicidal effect pre-emergence; type: in vivo; details: 320 g/ha, visual grading after ca. 3 weeks vs untreated controls
From the text: as §1, §2, §3

[9] = tested on: MATIN; assay: Herbicidal effect pre-emergence; type: in vivo, Matricaria inodora; details: 320 g/ha, visual grading after ca. 3 weeks vs untreated controls
From the text: as §2, §3

| Compound | herbicidal effect AMARE [1] | herbicidal effect SETVI [2] | herbicidal effect VIOTR [3] | herbicidal effect AMARE [4] | herbicidal effect SETVI [5] | herbicidal effect VIOTR [6] | herbicidal effect ALOMY [7] | herbicidal effect STEME [8] | herbicidal effect MATIN [9] |
| --- | --- | --- | --- | --- | --- | --- | --- | --- | --- |
| CC(C)c1cc2c(NC(=O)C(F)(F)C(F)(F)F)nsc2c(=O)n1CC1CCCCC1 [Example I-021, N-[6-(cyclohexylmethyl)-5-isopropyl-7-oxo-isothiazolo[5,4-c]pyridin-3-yl]-2,2,3,3,3-pentafluoro-propanamide] | 100% | 90% | 100% | 100% | 100% | 80% |  |  |  |
| CC(C)c1cc2c(N)nsc2c(=O)n1CC1CCCCC1 [Example I-023, 3-amino-6-(cyclohexylmethyl)-5-isopropyl-isothiazolo[5,4-c]pyridin-7-one] | 100% | 90% | 90% | 100% | 90% | 100% |  |  |  |
| COCc1cc2c(N)nsc2c(=O)n1CC1CCCCC1 [Example I-028] | 90% | 100% | 100% |  |  |  | 90% | 100% | 90% |
| CCC(=O)Nc1nsc2c(=O)n(CC3CCCCC3)c(CC)cc12 [Example I-029] | 100% | 90% | 100% |  |  |  | 90% | 90% | 90% |
| Nc1nsc2c(=O)n(CC3CCCCC3)c(CO)cc12 [Example I-036] | 100% | 90% | 80% | 90% | 100% | 100% |  |  |  |
| CCC(=O)Nc1nsc2c1CC(CO)N(CC1CCCCC1)C2=O (stereo not drawn) [Example I-044] | 100% | 90% | 100% | 100% | 100% | 100% |  |  |  |
| O=C(Nc1nsc2c(=O)n(CC3CCCCC3)c(CO)cc12)C(F)(F)C(F)(F)F [Example I-047] | 100% | 90% | 100% | 90% | 90% | 100% | 80% | 100% | 90% |
| CCC(=O)Nc1nsc2c(=O)n(CC3CCCCC3)c(CO)cc12 [Example I-048] | 100% | 100% | 100% | 100% | 100% | 100% | 80% | 100% | 90% |
| Nc1nsc2c(=O)n(CC3CCCCC3)cc(Br)c12 [Example I-054, 3-amino-4-bromo-6-(cyclohexylmethyl)isothiazolo[5,4-c]pyridin-7-one] | 100% | 100% | 100% | 100% | 100% | 100% | 90% | 100% | 100% |
| CC(C)Cc1cc2c(NC(=O)C(F)(F)F)nsc2c(=O)n1CC1CCCCC1 [Example I-056] | 90% | 90% | 100% | 90% | 100% | 90% |  |  |  |
| C#Cc1cn(CC2CCCCC2)c(=O)c2snc(N)c12 [Example I-070] | 100% | 100% | 100% | 100% | 100% | 100% |  |  |  |
| O=C(Nc1nsc2c(=O)n(CC3CCCCC3)cc(Br)c12)C(F)(F)C(F)(F)F [Example I-077] | 100% | 100% | 100% | 100% | 90% | 90% | 100% | 100% | 90% |
| CCC(=O)N(C(=O)CC)c1nsc2c(=O)n(CC3CCCCC3)cc(Br)c12 [Example I-079] | 100% | 100% | 100% | 100% | 90% | 100% |  |  |  |
| C=Cc1cn(CC2CCCCC2)c(=O)c2snc(N)c12 [Example I-080] | 80% | 80% | 100% | 100% | 100% | 80% |  |  |  |
| CCC(=O)N(C(=O)CC)c1nsc2c(=O)n(CC3CCCCC3)cc(Cl)c12 [Example I-082] | 100% | 100% | 100% | 100% | 100% | 100% |  |  |  |
| COCC(=O)Nc1nsc2c(=O)n(CC3CCCCC3)cc(Cl)c12 [Example I-085] | 100% | 100% | 100% | 100% | 100% | 100% |  |  |  |
| COCC#Cc1cn(CC2CCCCC2)c(=O)c2snc(N)c12 [Example I-103] | 90% | 80% | 100% | 100% | 100% | 100% |  |  |  |
| C/C=C/c1cn(CC2CCCCC2)c(=O)c2snc(N)c12 [Example I-118] | 90% | 90% | 80% | 100% | 100% | 100% |  |  |  |
| N#Cc1cn(CC2CCCCC2)c(=O)c2snc(N)c12 [Example I-135] | 100% | 100% | 100% | 100% | 90% | 100% |  |  |  |
